Data from patent US7919104B2, “Functional epitopes of Streptococcus pneumoniae PsaA antigen and uses thereof” (priority 2005, dated 2011).

Legend:
Detroit 562 cells [1] = assay: Adherence of rPsaA- or peptide-coated fluospheres (beads) to Detroit 562 cells; assay type: cell-based, human; conditions: 3,100±500 fluospheres per well; 2 hour incubation
Description: (§1) Carboxylate-modified fluorospheres (Molecular Probes™, […]) coated with either recombinant PsaA (rPsaA) or PsaA synthetic peptide (P4) were evaluated for their adherence to Detroit 562 NP cells. Four different batches of PsaA beads were generated by varying the concentration of the protein solution used to coat the beads (0.9 mg/ml, 0.53 mg/ml, 5.3 μg/ml and 0.53 μg/ml). P4 and Glycine control beads were generated by using a peptide solution (0.9 mg/ml). Protein concentrations were confirmed by the Bradford test (Sigma). PsaA and peptide beads were compared at similar inocula (1640±210 beads per well) in adherence and adherence competition assays (measured as mean fluorescent units (FU±SE)).
Recombinant PsaA protein or synthetic peptides were covalently bound to carboxylate-modified FluoSpheres (Molecular Probes, Eugene, Oreg.) (505/515 nm range, yellow, 1 μm in diameter). […] The 2% fluosphere stock was vortexed for 2 minutes at full speed. A 250-μl aliquot was sonicated for 5 minutes to break clumps. The sonicated fluospheres were washed 3 times by centrifugation at 10,000 rpm for 10 minutes in 250 μl MES buffer, pH 6.0 (Molecular Probes). The negative charge in the carboxylate-modified fluospheres was activated by adding 50 μl of EDAC solution (100 mg/ml, Molecular Probes) to the washed fluospheres resuspended in 200 μl MES. The fluospheres were incubated for 30 minutes RT with gentle rotation. A 250-μl volume of rPsaA (1 mg/ml) or peptide (2 mg/ml) resuspended in MES buffer was added to each fluosphere pellet. Suboptimal concentrations of rPsaA (900, 530, 5.3 and 0.53 μg/ml) were also used to generate partially coated fluospheres. Peptides were dissolved as 1 mg in 50 μl of 10% acetic acid followed by addition of 450 μl of MES buffer, pH 6.0. The 500-μl fluosphere suspension was incubated in the dark over night at room temperature with horizontal rotation (150 rpm). The remaining reactive sites were blocked by addition of a 50-μl volume of 1 M solution of glycine, followed by a-30-minute incubation at room temperature with horizontal rotation. The fluosphere suspension was then washed with 500 μl PBS, 50 mM, pH 7.2-7.4 three times by centrifugation at 10,000 rpm for 10 minutes. The first supernatant of the first wash was saved for protein determinations using the microtiter microdilution method of Bradford (Bio-Rad Laboratories, Calif.). The labeled fluosphere pellet was resuspended in 500 μl of PBS, 50 mM, pH 7.2-7.4. Labeled fluospheres were stored in the dark in 100-μl aliquots at 4° C. for up to 4 months. The peptides were stored in powder form at 4° C. under Dryerite desiccant. The resuspended peptides were stored at 4° C. for 6 weeks and for long term storage at −70° C. Fluospheres were counted by limiting dilution using a fluorometer (FLX-600, BioTek) with 485/520 nm excitation/emission wavelength and comparison to a calibration curve previously generated against hemacytometer counts.
Confluent monolayers of Detroit 562 cells grown in 96-well tissue culture plates for 6 days were washed once with 130 μl/well of PBS buffer+0.5% BSA (Sigma cat #A2153, Fraction V purified by alcohol precipitation). The entire outer perimeter of the microtiter plate was not used for adherence assays due to edge effect and lack of confluent growth in these wells. An 80-μl volume per well of PBS buffer+1% BSA and 20 μl per well of diluted fluosphere suspension (to yield ˜3100±500 fluospheres in a 20-μl volume) were added to the washed monolayers. The diluted fluosphere suspension was sonicated for 3 minutes prior to addition to the center of the wells. […] The sides of the plates were then tapped gently to mix. […] Following incubation, plates were washed 5 times with 130 μL/well of PBS+0.5% BSA. The liquid was removed after each wash with a multi-channel aspirator (Costar) and moderate vacuum. The plate was allowed to dry before reading in the fluorometer (485/520 nm). […]

Detroit 562 cells [2] = assay: Competitive inhibition of adherence of rPsaA-coated fluospheres to Detroit 562 cells; assay type: cell-based, human; conditions: peptide 10 μg/well
Description: as §1
(§2) Homologous competitive inhibitions with 0.5 to 10 μg per well of rPsaA protein or 5 to 20 μg per well of each peptide were performed to determine the specificity of the adherence for rPsaA-coated fluospheres or for each of the three peptide-coated fluospheres. Heterologous competitive inhibitions with each peptide (10 μg per well) were performed to determine which peptide blocked the adherence of whole PsaA-coated fluospheres to the Detroit 562 cells. Absorption of PsaA-specific antibodies was performed by incubation (2 hours at ambient room temperature with rotation, 100 rpm) of 500 μl (1:8 dilution) of the serum 7051 with nitrocellulose strips (2.5×0.5 cm), previously impregnated with rPsaA protein (1.8 mg/ml) and allowed to dry at 37° C. for 1 hour. Strips were replaced every 2 hours for a total of 3 changes. All antibody absorptions were performed in PBS (10 mM, pH 7.2) supplemented with 1% (weight/volume) BSA as a non-specific blocker. Immunoglobulin G (IgG) concentrations (μg/ml) were measured as previously described (Tharpe, Romero-Steiner) after each absorption step to monitor the decline of anti-PsaA antibodies.

Detroit 562 cells [3] = assay: Homologous competitive inhibition of adherence of rPsaA- or peptide-coated fluospheres to Detroit 562 cells; assay type: cell-based, human
Description: as §1, §2

pneumococci = conditions: antibodies to the peptides; cited from earlier work
[4] = homologous competitor 5.0 μg/well
[5] = homologous competitor 10 μg/well
[6] = homologous competitor 20 μg/well

Sequence | mean adherence of coated fluospheres (mean FU±SE) (Detroit 562 cells [1]) | inhibition of rPsaA-fluosphere adherence, heterologous competition (Detroit 562 cells [2]) [%] | percent reduction in adherence of homologous coated fluospheres (Detroit 562 cells [3]; [4]) [%] | percent reduction in adherence of homologous coated fluospheres (Detroit 562 cells [3]; [5]) [%] | percent reduction in adherence of homologous coated fluospheres (Detroit 562 cells [3]; [6]) [%] | colonization in mice immunized with the peptides (pneumococci)
RSYQHDLRAYGFWRL [P2, synthetic peptide identified by phage display, reference compound] | 17,195±1,044 FU | 62.2 | 43.1 | 20.5 | 0.8 | reduce colonization
TVSRVPWTAWAFHGY [P1, synthetic peptide identified by phage display, reference compound] | 52,684±4,354 FU | 88.1 | 50.2 | 60.9 | 34.1 | reduce colonization
